Data from the C3SDB collision cross section collection.
Several values for one entry are separate records, joined by “and”; a condition that tells them apart may be missing. Equal values may be shown once. One block for each molecule: values may come before it.

Key:
[1] = instrument: TW, calibrated with phosphatidylcholines (ESI+) and phosphatidylethanolamines (ESI-), doubly charged cardiolipins calibrated with poly-DL-…
[2] = instrument: DT, single field
[3] = instrument: DT, stepped-field
[4] = instrument: DT, single field, calibrated with Agilent tune mix (Agilent)

Compound: CCCCCC/C=C\CCCCCCCC(=O)OCC(COP(=O)(O)OCC(O)COP(=O)(O)OCC(COC(=O)CCCCCCCC1CC1CCCCCCCC)OC(=O)CCCCCCC/C=C\CCCCCC)OC(=O)CCCCCCC/C=C\CCCCCCCC (stereo unspecified) [CL(69:4)]
collision cross section (N2) ([1]; [M-2H]2-): 409.28 Å²

Compound: CCCCCC/C=C\CCCCCCCC(=O)OC[C@H](COP(=O)(O)OC[C@@H](O)COC(=O)CCCCCCCCCCCCCCC)OC(=O)CCCCCCCC1CC1CCCCCCCCCC (stereo partly specified) [AcylPG(53:2)]
collision cross section (N2) ([1]; [M-H]-): 333.78 Å²

Compound: CCCCCC/C=C\CCCCCCCC(=O)OC[C@H](COP(=O)(O)OC[C@@H](O)COC(=O)CCCCCCCCCCCCCCC)OC(=O)CCCCCCCCCCCCC [AcylPG(46:1)]
collision cross section (N2) ([1]; [M-H]-): 310.71 Å²

Compound: CCCCCC/C=C\CCCCCCCC(=O)OC[C@H](COP(=O)(O)OCCNC(=O)CCCCCCCCCCCCCCC)OC(=O)CCCCCCCC1CC1CCCCCCCC (stereo partly specified) [AcylPE(51:2)]
collision cross section (N2) ([1]; [M-H]-): 325.65 Å²

Compound: CCCCCCCCC1CC1CCCCCCCC(=O)O[C@H](CO)COP(=O)([O-])OCC[NH3+] (stereo partly specified) [LPE(0:0/19:1)]
collision cross section (N2) ([1]; [M+H]+): 221.32 Å²
collision cross section (N2) ([1]; [M+Na]+): 226.07 Å²
collision cross section (N2) ([1]; [M-H]-): 214.39 Å²

Compound: CCCCCC/C=C\CCCCCCCC(=O)OC[C@H](COP(=O)(O)OCCNC(=O)CCCCCCCCCCCCCCC)OC(=O)CCCCCCC/C=C\CCCCCCCCCC [AcylPE(52:2)]
collision cross section (N2) ([1]; [M-H]-): 328.83 Å²

Compound: CCCCCC/C=C/CCCCCCCC(=O)OC[C@@H](O)COP(=O)([O-])OCC[NH3+] [LPE(16:1/0:0)]
collision cross section (N2) ([1]; [M+H]+): 206.28 Å²
collision cross section (N2) ([1]; [M+Na]+): 211.09 Å²
collision cross section (N2) ([1]; [M-H]-): 203.75 Å²

Compound: CCCCCCC1CC1CCCCCCCC(=O)O[C@H](CO)COP(=O)([O-])OCC[NH3+] (stereo partly specified) [LPE(0:0/17:1)]
collision cross section (N2) ([1]; [M+H]+): 214.85 Å²
collision cross section (N2) ([1]; [M+Na]+): 219.32 Å²
collision cross section (N2) ([1]; [M-H]-): 207.62 Å²

Compound: CCCCCC/C=C\CCCCCCCC(=O)OC[C@H](COP(=O)(O)OC[C@@H](O)COC(=O)CCCCCCCCCCCCCCC)OC(=O)CCCCCCCC1CC1CCCCCC (stereo partly specified) [AcylPG(49:2)]
collision cross section (N2) ([1]; [M-H]-): 318.87 Å²

Compound: CCCCCC/C=C\CCCCCCCC(=O)OC[C@H](COP(=O)(O)OC[C@@H](O)COC(=O)CCCCCCCCCCCCCCC)OC(=O)CCCCCCCC1CC1CCCCCCCC (stereo partly specified) [AcylPG(51:2)]
collision cross section (N2) ([1]; [M-H]-): 326.79 Å²

Compound: CCCCCC/C=C\CCCCCCCC(=O)OC[C@H](COP(=O)(O)OC[C@@H](O)COC(=O)CCCCCCCCCCCCCCC)OC(=O)CCCCCCC/C=C\CCCCCC [AcylPG(48:2)]
collision cross section (N2) ([1]; [M-H]-): 315.28 Å²

Compound: CCCCCC/C=C\CCCCCCCC(=O)OC[C@H](COP(=O)(O)OCCNC(=O)CCCCCCCCCCCCCCC)OC(=O)CCCCCCCCCCCCC [AcylPE(46:1)]
collision cross section (N2) ([1]; [M-H]-): 310.12 Å²

Compound: CCCCCC/C=C\CCCCCCCC(=O)OCC(COP(=O)(O)OCC(O)COP(=O)(O)OCC(COC(=O)CCCCCCC/C=C/CCCCCCCC)OC(=O)CCCCCCC/C=C\CCCCCC)OC(=O)CCCCCCC/C=C\CCCCCCCC (stereo unspecified) [CL(68:4)]
collision cross section (N2) ([1]; [M-2H]2-): 406.81 Å²

Compound: CCCCCC/C=C\CCCCCCCC(=O)OC(COC(=O)CCCCCCCCCCCCCCC)COP(=O)(O)OCC(O)COP(=O)(O)OCC(COC(=O)CCCCCCCCCCCCCCC)OC(=O)CCCCCCC/C=C\CCCCCC (stereo unspecified) [CL(64:2)]
collision cross section (N2) ([1]; [M+2K]2+): 422.9 Å²
collision cross section (N2) ([1]; [M-2H]2-): 397 Å²

Compound: CCCCC1CC1CCCCCCCC(=O)O[C@H](CO)COP(=O)(O)OCC(O)CO (stereo partly specified) [LPG(15:1)]
collision cross section (N2) ([1]; [M-H]-): 206.44 Å²

Compound: CCCCCC/C=C\CCCCCCCC(=O)OC[C@H](COP(=O)(O)OCCNC(=O)CCCCCCCCCCCCCCC)OC(=O)CCCCCCCCCCCCCC [AcylPE(47:1)]
collision cross section (N2) ([1]; [M+Na]+): 321.4 Å²
collision cross section (N2) ([1]; [M-H]-): 313.42 Å²

Compound: CCCCCC/C=C\CCCCCCCC(=O)OC[C@H](O)COP(=O)(O)OC[C@@H](COC(=O)CCCCCCC/C=C\CCCCCC)OC(=O)CCCCCCCC1CC1CCCCCCCC (stereo partly specified) [AcylPG(51:3)]
collision cross section (N2) ([1]; [M-H]-): 325 Å²

Next, values leading:

collision cross section (N2) ([1]; [M+Na]+): 281.82 Å²
collision cross section (N2) ([1]; [M-H]-): 271.85 Å²
Compound: CCCCCC/C=C\CCCCCCCC(=O)OCC(COP(=O)(O)OCC(O)CO)OC(=O)CCCCCCCC1CC1CCCCCCCC (stereo unspecified) [PG(35:2)]

collision cross section (N2) ([2]; [M+H]+): 308.58 Å²
collision cross section (N2) ([3]; [M+Na]+): 312.5 Å²
Compound: CCCCCCCCCCCCC=CC[C@@H](O)[C@H](COP(=O)([O-])OCC[N+](C)(C)C)NC(=O)CCCCCCCCCCCCCCCCCCCCCCCC [SM(43:1)]

collision cross section (N2) ([1]; [M-H]-): 261.81 Å²
Compound: CCCCCCCC/C=C\CCCCCCCC(=O)OC(COC(=O)CCCCCCCCCCCCCCCCC)COP(=O)(O)O (stereo unspecified) [PA(36:1)]

collision cross section (N2) ([1]; [M+Na]+): 278.38 Å²
collision cross section (N2) ([1]; [M-H]-): 267.97 Å²
Compound: CCCCCC/C=C\CCCCCCCC(=O)OCC(COP(=O)(O)OCC(O)CO)OC(=O)CCCCCCC/C=C\CCCCCCCC (stereo unspecified) [PG(34:2)]

collision cross section (N2) ([1]; [M+H]+): 271.97 Å²
collision cross section (N2) ([1]; [M-H]-): 261.72 Å²
Compound: CCCCCC/C=C\CCCCCCCC(=O)OCC(COP(=O)(O)OCCN)OC(=O)CCCCCCC/C=C\CCCCCCCC (stereo unspecified) [PE(34:2)]

collision cross section (N2) ([1]; [M+Na]+): 275.15 Å²
collision cross section (N2) ([1]; [M-H]-): 262.68 Å²
Compound: CCCCCC/C=C\CCCCCCCC(=O)OCC(COP(=O)(O)OCC(O)CO)OC(=O)CCCCCCCCCCCCCCC (stereo unspecified) [PG(32:1)]

collision cross section (N2) ([1]; [M+H]+): 273.6 Å²
collision cross section (N2) ([1]; [M-H]-): 259.91 Å²
Compound: CCCCCCCCCCCCCCCC(=O)OCC(COP(=O)(O)OCCN)OC(=O)CCCCCCCC1CC1CCCCCC (stereo unspecified) [PE(33:1)]

collision cross section (N2) ([2]; [M+Na]+): 312.33 Å² and 314.31 Å²
collision cross section (N2) ([4]; [M+NH4]+): 314.7 Å²
Compound: CCCCC/C=C\C/C=C\C/C=C\CCCCC(=O)O[C@H](COC(=O)CCCCCCCCCCC)COC(=O)CCCCCCCCCCC/C=C\C/C=C\CCCCC [TG(52:5)]

collision cross section (N2) ([2]; [M+Na]+): 315.77 Å² and 317.68 Å²
collision cross section (N2) ([4]; [M+NH4]+): 317.2 Å²
Compound: CCCCCCCCC/C=C\CCCCCCCC(=O)OC[C@@H](COC(=O)CCCCCCCCCCCC)OC(=O)CCCCCCC/C=C\CCCCCCCCC [TG(51:2)]

collision cross section (N2) ([1]; [M-H]-): 214.26 Å²
Compound: CCCCCCC1CC1CCCCCCCC(=O)OC[C@@H](O)COP(=O)(O)OCC(O)CO (stereo partly specified) [LPG(17:1)]

collision cross section (N2) ([1]; [M+H]+): 269.25 Å²
collision cross section (N2) ([1]; [M-H]-): 253.95 Å²
Compound: CCCCCCCCCCCCCCCC(=O)OCC(COP(=O)(O)OCCN)OC(=O)CCCCCCCCCCCCCC (stereo unspecified) [PE(31:0)]

collision cross section (N2) ([1]; [M+Na]+): 278.8 Å²
collision cross section (N2) ([1]; [M-H]-): 263.91 Å²
Compound: CCCCCCCCCCCCCCCC(=O)OCC(COP(=O)(O)OCC(O)CO)OC(=O)CCCCCCCCCCCCCCC (stereo unspecified) [PG(32:0)]

collision cross section (N2) ([2]; [M+Na]+): 313.04 Å² and 315.16 Å²
collision cross section (N2) ([4]; [M+NH4]+): 315.8 Å²
Compound: CCCCCCCCC/C=C\CCCCCCCC(=O)OC[C@@H](COC(=O)CCCCCCCCCCC)OC(=O)CCCCCCC/C=C\CCCCCCCCC [TG(50:2)]

collision cross section (N2) ([1]; [M+H]+): 265.85 Å²
collision cross section (N2) ([1]; [M-H]-): 251.05 Å²
Compound: CCCCCCCCCCCCCCCC(=O)OCC(COP(=O)(O)OCCN)OC(=O)CCCCCCCCCCCCC (stereo unspecified) [PE(30:0)]

collision cross section (N2) ([2]; [M+NH4]+): 327.84 Å² and 330.13 Å² and 333.95 Å²
collision cross section (N2) ([2]; [M+Na]+): 329.41 Å²
collision cross section (N2) ([4]; [M+NH4]+): 330.8 Å²
Compound: CCCCC/C=C\C/C=C\CCCCCCCCCCCC(=O)OC[C@@H](COC(=O)CCCCCCCCCCC)OC(=O)CCCCCCCCCCC/C=C\C/C=C\CCCCC [TG(56:4)]

collision cross section (N2) ([2]; [M+NH4]+): 342.22 Å² and 344.48 Å²
collision cross section (N2) ([4]; [M+NH4]+): 337.6 Å²
Compound: CCCC/C=C\C/C=C\CCCCCCCC(=O)OC[C@H](COC(=O)CCCCCCCCCCCCCCCCCCCCC)OC(=O)CCCCCCCCC/C=C\CCCCCCCC [TG(59:3)]

collision cross section (N2) ([2]; [M+H]+): 279.23 Å²
collision cross section (N2) ([3]; [M+K]+): 291.5 Å²
collision cross section (N2) ([4]; [M+H]+): 279.8 Å²
Compound: CCCCC/C=C\C/C=C\CCCCCCCCCC(=O)O[C@H](COC(=O)CCCCCCCCCCCC)COP(=O)([O-])OCC[N+](C)(C)C [PC(33:2)]

collision cross section (N2) ([2]; [M+Na]+): 331.24 Å²
collision cross section (N2) ([4]; [M+NH4]+): 332.6 Å²
Compound: CCCCCCC/C=C\CCCCCCCC(=O)OC[C@H](COC(=O)CCCCCCCCC/C=C\CCCCCCCCCC)OC(=O)CCCCCCC/C=C\CCCCCCC [TG(56:3)]

collision cross section (N2) ([2]; [M+NH4]+): 312.43 Å² and 314.2 Å² and 317.35 Å²
collision cross section (N2) ([2]; [M+Na]+): 313.17 Å²
collision cross section (N2) ([4]; [M+NH4]+): 312.1 Å²
Compound: CCCC/C=C\C/C=C\CCCCCCCC(=O)O[C@@H](COC(=O)CCCCCCC/C=C\C/C=C\CCCCC)COC(=O)CCCCCCCCCCCCCCC [TG(51:4)]

collision cross section (N2) ([2]; [M+Na]+): 320.83 Å² and 322.81 Å²
collision cross section (N2) ([4]; [M+NH4]+): 323.6 Å²
Compound: CCCCCCC/C=C\CCCCCCCC(=O)O[C@H](COC(=O)CCCCCCCCCCCCCCCC)COC(=O)CCCCCCCCCCCCCCCCC [TG(52:1)]

collision cross section (N2) ([2]; [M+H]+): 299.29 Å²
collision cross section (N2) ([3]; [M+Na]+): 303.9 Å²
collision cross section (N2) ([4]; [M+HCOO]-): 297.5 Å²
collision cross section (N2) ([4]; [M+H]+): 300.7 Å²
collision cross section (N2) ([4]; [M+Na]+): 300.5 Å²
Compound: CCCCCCCCCCCCC=CC[C@@H](O)[C@H](COP(=O)([O-])OCC[N+](C)(C)C)NC(=O)CCCCCCCCCCCCCCCCCCCCC [SM(40:1)]

collision cross section (N2) ([2]; [M+NH4]+): 311.73 Å² and 314.12 Å²
collision cross section (N2) ([2]; [M+Na]+): 310.81 Å² and 313.16 Å²
collision cross section (N2) ([4]; [M+NH4]+): 313 Å²
Compound: CCCCC/C=C\C/C=C\C/C=C\CCCCCCCCC(=O)OC[C@@H](COC(=O)CCCCCCCCCCCCC)OC(=O)CCCCCCCCCCCCC [TG(50:3)]

collision cross section (N2) ([2]; [M+H]+): 272.28 Å²
collision cross section (N2) ([3]; [M+K]+): 283.6 Å²
Compound: CCCCC/C=C\CCCCCCCC(=O)O[C@H](COC(=O)CCCCCCC/C=C\CCCCCC)COP(=O)([O-])OCC[N+](C)(C)C [PC(31:2)]
